26 molecules from patent publication US8361998B2, “Compounds and their use as IKACh blockers” (AstraZeneca AB, priority 2010, dated 2013) can be followed below.

For the experiment, the target named is T1, human cardiac ion channel proteins hKir3.1/Kir3.4 (Homo sapiens, UniProt P48544+P48549).
T1 construct: expressed in transfected cells
T1 sequence (P48549 1-501): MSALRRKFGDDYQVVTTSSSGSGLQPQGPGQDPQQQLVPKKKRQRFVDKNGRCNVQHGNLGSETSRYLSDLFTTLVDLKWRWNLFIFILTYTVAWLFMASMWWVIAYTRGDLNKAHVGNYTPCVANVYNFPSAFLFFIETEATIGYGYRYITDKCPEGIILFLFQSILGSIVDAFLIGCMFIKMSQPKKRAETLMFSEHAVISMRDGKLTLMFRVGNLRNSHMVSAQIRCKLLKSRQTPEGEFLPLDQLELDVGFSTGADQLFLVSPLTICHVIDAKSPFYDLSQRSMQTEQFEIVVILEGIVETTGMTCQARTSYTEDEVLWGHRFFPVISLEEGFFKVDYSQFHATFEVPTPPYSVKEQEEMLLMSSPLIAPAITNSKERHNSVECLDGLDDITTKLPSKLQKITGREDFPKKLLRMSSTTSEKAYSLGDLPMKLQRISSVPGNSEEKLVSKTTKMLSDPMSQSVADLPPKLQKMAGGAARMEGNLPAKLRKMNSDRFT
T1 sequence (P48544 1-419): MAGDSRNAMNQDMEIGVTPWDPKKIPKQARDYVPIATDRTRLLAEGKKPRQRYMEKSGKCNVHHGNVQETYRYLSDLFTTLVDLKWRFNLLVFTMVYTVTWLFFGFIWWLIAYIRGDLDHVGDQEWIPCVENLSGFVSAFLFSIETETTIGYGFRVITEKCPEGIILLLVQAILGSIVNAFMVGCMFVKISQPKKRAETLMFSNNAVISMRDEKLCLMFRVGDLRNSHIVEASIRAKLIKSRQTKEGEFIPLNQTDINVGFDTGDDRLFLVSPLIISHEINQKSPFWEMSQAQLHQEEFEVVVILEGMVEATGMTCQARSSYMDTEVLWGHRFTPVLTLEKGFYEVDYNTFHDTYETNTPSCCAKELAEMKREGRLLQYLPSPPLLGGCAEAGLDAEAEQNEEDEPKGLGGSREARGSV
In words: Atomic Absorption Screening (AAS) Rb efflux assay of hKir3.1/Kir3.4 block, carbachol/high K+ stimulated, 10-pt or 7-pt CR. The class given is cell-based. The text has this: Human KCNJ3 encoding Kir3.1 (Genbank acc. No. NM_002239) was inserted between EcoRI and NotI in the pIRESneo3 vector (Clontech Laboratories, Inc. CA, USA). Human KCNJ5 encoding Kir3.4 (Genbank Acc. No. BC069482) was inserted between EcoR1 and Not1 in the pIRESpuro3 vector (Clontech Laboratories, Inc. CA, USA). A Kozak sequence (GCCACC) was introduced before the start codon ATG of both constructs. Chinese Hamster Ovary K1, CHO-FLP/IN, cells (Invitrogen Corporation, Paisley, UK) were transfected simultaneously using Lipofectamine 2000 reagent (Invitrogen Corporation, Paisley, UK). Geneticin 600 μg/mL (Invitrogen Corporation, Paisley, UK) and puromycin 3 μg/mL (BD Bioscience) were added to the cell culture medium 3 days after transfection. Two weeks after transfection, colonies had appeared and were manually picked and sorted to one cell per well in a 96-well plate. Cells were then tested for Kir3.1 and Kir3.4 expression using membrane potential assay, Western Blot and Immunocytochemistry. […] The cell line was re-sorted by flow cytometry and resulting clones were assayed electrophysiologically using IonWorks (Molecular Devices) and later validated on the Q-Patch (Sophion A/S).
The stable cell line was cultured in DMEM/F12 with Glutamax 1 (Invitrogen Corporation, Paisley, UK), supplemented with foetal bovine serum 10%, puromycin 3 μg/mL, hygromycin 300 μg/mL and geneticin 600 μg/mL (Invitrogen Corporation, Paisley, UK). Care was taken not to seed cells at too low density and cells were passaged at approximately 70-80% confluency. Cells used for patch-clamp experiments were prepared by washing using PBS (—Mg, —Ca^2+), 2 times, detached using Accutase (Sigma). For Q-Patch measurements, storage medium was prepared fresh by adding 1.25 mL of 1M Hepes (GibcoBRL) to 50 mL CHO-SFM II medium (GibcoBRL) and detached cells were diluted to 2 million cells/mL in this medium. Frozen (Cryopreserved) cells were used for Atomic Absorption Screening (AAS) and plated poly-D-lysine 384-well plates (Greiner) at a density of 11,000-13,000 cells/well, the day before assay.
The blocking effects of compounds on the human cardiac ion channel proteins hKir3.1/Kir3.4 were assessed in CHO-K1 cells stably expressing the channel proteins using Atomic Absorption Screening (AAS). Cells were washed and then loaded with 25 μL Rb-loading buffer for three hours at 37° C. After that, the cells were washed again and 25 μL of diluted compound was transferred to the cell plate, incubated for 5 min in RT, and then […] of Carbachol/high K+ (10 μM carbachol and 20 mM KCl final concentration) buffer added to stimulate the cells and open the Kir3.1/Kir3.4 channel. After 10 min stimulation, […] of the supernatant was transferred to a new microplate, 45 μL washing buffer added to the supernatant and the level of Rb in the supernatant was then measured using an Aurora ICR 8000. Compounds were studied at concentrations ranging from 0.003 to 67 μmol/L (dilutions by three, 10-pt CR) or from 0.037 to 27 μmol/L (dilutions by three, 7-pt CR).
Stock solutions of compounds were prepared in DMSO 10 mM and stored at RT. Buffers used for AAS contained (in mM): HEPES 20, NaCl 150, MgCl2 1.0, CaCl2 2.0 and NaH2PO4 0.8 and Glucose 10 (wash 1) or KCl 5 and Glucose 5 (wash 2) or KCl 5 (dilution buffer). The High K^+ channel opener buffer contained (in mM): HEPES 20, NaCl 130, MgCl2 1.0, CaCl2 2.0 and NaH2PO4 0.8 together with KCl 20. Solutions used for Q-Patch (extracellular) in mM: NaCl 145, KCl 4, CaCl2 2.0, MgCl2 1.0, HEPES 10 and glucose 10. The high K^+ extra cellular solution used for Q-Patch in mM: NaCl 96.7, KCl 50.7, CaCl2 2.0, MgCl2 1.0, HEPES 10 and glucose 10 while the intra cellular solution used was (in mM): KCl 120, CaCl2 5.374, MgCl2 1.75, EGTA 10, KOH 3.125, HEPES 10, Na2ATP 4.
Results are given as mean IC50 of >4 replicates (10-pt CR, AAS) or >3 replicates (7-pt CR, AAS). Some of the data in Table 1 are mean values of two or more runs. […]

Where [1] appears, read: 10-pt CR (0.003 to 67 μmol/L), AAS Rb efflux, CHO-K1 cells expressing hKir3.1/Kir3.4, mean of >4 replicates, read-out: IKACh IC50 10-pt CR, AAS.
Setting [2] is: printed as IC50 >67 μM in the 10-pt CR assay or IC50 >27 μM in the 7-pt CR assay, assay format per compound not stated, read-out: IC50.

Like-named read-outs stand apart in the source and are kept apart here.

As for `CCC[C@@H](CN1C[C@H](O)[C@H]1C)N(C)C(=O)c1ccc(F)cc1` (relative stereo) [Example 43.2, 4-Fluoro-N—((S)-1-((2R*,3S*)-3-hydroxy-2-methylazetidin-1-yl)pentan-2-yl)-N-methylbenzamide], the IC50 under setting [1] is 9100 nM.

Regarding `CCC[C@@H](CN1C[C@H](O)[C@H]1C)N(C)C(=O)c1ccc(F)c(F)c1` (relative stereo) [Example 43.3, 3,4-Difluoro-N—((S)-1-((2R*,3S*)-3-hydroxy-2-methylazetidin-1-yl)pentan-2-yl)-N-methylbenzamide], the 50% inhibitory concentration (IC50) under setting [1] amounted to 2700 nM. With `CN(C(=O)c1ccc(F)c(F)c1)[C@H](CN1CC(O)C1)C1CCCC1` (single isomer, unassigned) [32.1, isomer 1], the IC50 under setting [1] was 260 nM. Turning to `CN(C(=O)c1ccc(F)c(F)c1)[C@H](CN1CC(O)C1)C1CCCC1` (single isomer, unassigned) [32.1, isomer 2], the half-inhibitory concentration (IC50) under setting [1] stood at 2300 nM. Same read-out and setting: the figure for `COc1ccc(C(=O)N(C)C(CN2CC(O)C2)C2CCCC2)cc1` (single isomer, unassigned) [32.2, isomer 1] is 580 nM. Consider `COc1ccc(C(=O)N(C)C(CN2CC(O)C2)C2CCCC2)cc1` (single isomer, unassigned) [32.2, isomer 2], for which the IC50 under setting [1] was 15000 nM. On the same count and under the same terms, as for `CN(C(=O)c1ccc(Cl)cc1)C(CN1CC(O)C1)C1CCCC1` (single isomer, unassigned) [32.3, isomer 1], the figure is 55 nM; as for `CN(C(=O)c1ccc(Cl)cc1)C(CN1CC(O)C1)C1CCCC1` (single isomer, unassigned) [32.3, isomer 2], 300 nM; as for `Cc1cc(C(=O)N(C)C(CN2CC(O)C2)C2CCCC2)ccc1F` (single isomer, unassigned) [32.4, isomer 1], 34 nM. For `Cc1cc(C(=O)N(C)C(CN2CC(O)C2)C2CCCC2)ccc1F` (single isomer, unassigned) [32.4, isomer 2], the IC50 under setting [1] worked out at 980 nM. Still for that read-out and setting: the figure for `CN(C(=O)c1ccc(C#N)cc1)C(CN1CC(O)C1)C1CCCC1` (single isomer, unassigned) [32.5, isomer 1] is 340 nM; for `CN(C(=O)c1ccc(C#N)cc1)C(CN1CC(O)C1)C1CCCC1` (single isomer, unassigned) [32.5, isomer 2] it is 7500 nM; for `CN(C(=O)c1ccc(F)cc1Cl)C(CN1CC(O)C1)C1CCCC1` (single isomer, unassigned) [32.6, isomer 1] it is 1100 nM. Still for that read-out and setting: as for `CN(C(=O)c1ccc(F)cc1Cl)C(CN1CC(O)C1)C1CCCC1` (single isomer, unassigned) [32.6, isomer 2], the figure is 2300 nM. As to `CN(C(=O)c1ccc(F)c(Cl)c1)C(CN1CC(O)C1)C1CCCC1` (single isomer, unassigned) [32.7, isomer 1], under setting [1], the half-maximal inhibitory concentration (IC50) amounted to 75 nM. Same read-out and setting: as for `CN(C(=O)c1ccc(F)c(Cl)c1)C(CN1CC(O)C1)C1CCCC1` (single isomer, unassigned) [32.7, isomer 2], the figure is 160 nM; as for `CC[C@H](C)C(CN1CC(O)C1)N(C)C(=O)c1ccc(F)c(F)c1` (stereo in doubt) [Example 29.1, 3,4-Difluoro-N-((2S,3S)-1-(3-hydroxyazetidin-1-yl)-3-methylpentan-2-yl)-N-methylbenzamide], 9300 nM. For the molecule `CC(C)[C@@H](CN1CC[C@H](O)C1)N(C)C(=O)c1cc(F)cc(F)c1F` [2,3,5-Trifluoro-N-[(1S)-1-{[(3S)-3-hydroxypyrrolidin-1-yl]methyl}-2-methylpropyl]-N-methylbenzamide], the concentration for half-maximal inhibition (IC50) under setting [2] is over 27000 nM. In the case of `CC(C)[C@@H](CN1CCCCC1)N(C)C(=O)c1cc(F)cc(F)c1F` [2,3,5-Trifluoro-N-methyl-N-[(1S)-2-methyl-1-(piperidin-1-ylmethyl)propyl]benzamide], the IC50 under setting [2] was over 27000 nM. For `CC(C)[C@@H](CCN1CCCC1)N(C)C(=O)c1ccccc1Cl` [2-Chloro-N-methyl-N-[(1R)-2-methyl-1-(2-pyrrolidin-1-ylethyl)propyl]benzamide], the half-inhibitory concentration (IC50) under setting [2] is over 27000 nM. `CC(C)[C@@H](CN1CC[C@H](O)C1)N(C)C(=O)c1cc(C(F)(F)F)ccc1F` [2-Fluoro-N-[(1S)-1-{[(3S)-3-hydroxypyrrolidin-1-yl]methyl}-2-methylpropyl]-N-methyl-5-(trifluoromethyl)benzamide]: the IC50 under setting [2] is over 27000 nM. On the same count and under the same terms, the figure for `CCC[C@@H](CN1C[C@@H](O)[C@@H]1C)N(C)C(=O)c1ccc(F)c(F)c1` [3,4-Difluoro-N-((S)-1-((2S,3R)-3-hydroxy-2-methylazetidin-1-yl)pentan-2-yl)-N-methylbenzamide] is over 27000 nM. As for `CC(C)[C@H](CN1CCCC1)N(C)C(=O)c1ccc(F)c(Cl)c1` [3-Chloro-4-fluoro-N-methyl-N-[(1R)-2-methyl-1-(pyrrolidin-1-ylmethyl)propyl]benzamide], the concentration for half-maximal inhibition (IC50) under setting [2] was over 27000 nM. Consider `CC(CN1CCCC1)N(C)C(=O)c1cccc(Cl)c1` (centres unmarked) [3-Chloro-N-methyl-N-(1-methyl-2-pyrrolidin-1-ylethyl)benzamide], for which the IC50 under setting [2] is over 27000 nM. On the same count and under the same terms, the figure for `CC(C)[C@@H](CN1CC[C@H](O)C1)N(C)C(=O)c1cccc(C#N)c1` [3-Cyano-N-[(1S)-1-{[(3S)-3-hydroxypyrrolidin-1-yl]methyl}-2-methylpropyl]-N-methylbenzamide] is over 27000 nM. The same measure, in the same setting: as for `CC(C)[C@H](CN1CCCC1)N(C)C(=O)c1cccc(C#N)c1` [3-Cyano-N-methyl-N-[(1R)-2-methyl-1-(pyrrolidin-1-ylmethyl)propyl]benzamide], the figure is over 27000 nM.

Broadly, the IC50 is the concentration that gives 50% inhibition.
